Measurements taken from PMC7159882, “Polyunsaturated fatty acid analogues differentially affect cardiac NaV, CaV, and KV channels through unique mechanisms” (eLife, 2020).

System: human induced pluripotent stem cell-derived cardiomyocytes (hiPSC-CM)
Assay: Optical recordings of calcium transients in hiPSC-CM monolayers
Assay type: cell-based
Method: Human induced pluripotent stem cell-derived cardiomyocytes (hiPSC-CM) were purchased from AXOL Bioscience. The hiPSC-CM were thawed and plated following the manufacturer’s protocol. Briefly, cells were plated on Matrigel (Corning) pre-coated glass coverslips cultivated in 96-multiwell plates (Falcon). Matrigel was diluted in sterile DMEM/F12 medium (Gibco) (1:130) and incubated for 2 hr at 37°C before plating the cells. hiPSC-CM were cultured at 37°C and 5% CO2. Cultured hiPSC-CM were fed every other day. […]
CaT fluorescence recordings from cell monolayers were recorded using a Leica DM LFS upright microscope. […] Fluorescence signals were passed through the emission filter, collected by a photodiode, and amplified with an Axopatch 200B patch clamp amplifier (Axon Instruments). Calcium fluorescence signals were low-pass Bessell-filtered (Frequency Devices) at 100 Hz, digitized at 1 kHz, and recorded using Clampex 9.2 and analyzed using Clampfit 9.2. […] Since hiPSC-CM were spontaneously beating and at slightly different frequencies between monolayers, the frequency of the action potentials was calculated as the inverse of the time between CaTs. The action potential duration (APD) was measured in the absence and the presence of DHA-Glycine. The APD90 (or the time required to achieve the 90% of repolarization of the CaT) was measured in all the experiments to test the effects of DHA-glycine. […]

CC/C=C\C/C=C\C/C=C\C/C=C\C/C=C\C/C=C\CCC(=O)NCC(=O)O [DHA-glycine, docosahexaenoyl glycine]
CaT APD90c (30 µM, corrected by modified Fridericia's formula, control 472 ± 27 ms, n = 3): 317 ± 9 ms | effect on hiPSC-derived cardiomyocytes at lower doses (doses lower than 30 μM): did not get significant effects at low doses
